The source of these data is patent US20080081781A1, “Methods and compositions for the treatment of metabolic syndrome” (priority 2004, published 2008).

In one series the test system is PKC. The series is described as follows: PKC activity in rat liver (PepTag assay). The format is in vivo. The note with it: berberine treated rats. As to the method:
(§1) The livers were dissected and stored in liquid nitrogen for RNA extraction, real-time RT-PCR and PKC activity assay. Total blood samples were also collected to assay fasting blood glucose and serum insulin levels. The insulin levels were analyzed using radio-immunoassay (Linco Research, St Charles, Mo.). The insulin sensitivity indexes (ISI) were calculated according to the formula: 10^4/(fasting serum insulin X fasting blood glucose) (Hanson, Am. J. Epidemiol. 15 1(2), 190-198 (2000)). The insulin level and ISI of normal rats were also determined for comparison. […] It also elevated the fasting blood glucose from 7 to 12.8 mmol/L (P<0.001).
PKC activity was analyzed using the PepTag® Assay for Non-Radioactive Detection of Protein Kinase-C or cAMP-Dependent Protein Kinase kit (Promega) according to the protocol. Briefly, after homogenization and partial purification, […] was mixed with 5 μl of PepTag® Cl peptide (specific substrate of PKC), 5 μl of reaction buffer and 5 μl of PKC activator solution in a 25 μl reaction system. […] They were transferred to a 96-well plate and quantified using densitometry according to the supplier's protocol. The catalytic activity of total PKC of a specific sample was expressed as pmol/min/mg, representing the number of picomoles of phosphate transferred to the substrate per minute per milligram of proteins of the sample.

Series [1] is described as follows: Toxicity analysis (LD50) in rats. The following applies: rat, in vivo. The protocol: Rats and mice were administered berberine through a variety of techniques, including orally, through subcutaneous injection, peritoneal injection and intravenous injection.
The test system of series [2] is LDLR mRNA. The series is described as follows: LDLR mRNA levels in Bel-7402 cells (quantitative RT-PCR). The series is classed as cell-based, human. As to the method:
Bel-7402 cells were treated with 0, 0.5, 1, 2.5, 5, μg/ml of berberine or 2.5, 7.5 and 15 μg/ml of berberine sulfate. The cells were then centrifuged and washed and LDLR mRNA was extracted. LDLR mRNA levels were then measured using scan quantitative RT-PCR, (FIGS. 3 A and B).

A further series deals with hyperglycemic rats. The experiment in a line: Hyperglycemic HFHC diet/streptozotocin Wistar rats: blood glucose, serum insulin, ISI, serum lipids. The series is classed as in vivo, Wistar rat. The following applies: for reduction of fasting blood glucose vs untreated rats on same HFHC diet: 14 days. As to the method:
Nineteen Wistar rats (Male, 250g, the Institute of Experiment Animal Sciences, Chinese Academy of Medical Sciences, Beijing) were fed high fat and high cholesterol (HFHC) diet containing 25% lard, 20% sucrose and 5% yolk powder (Institute of Experiment Animal Sciences) for 4 weeks to induce insulin resistance status. Then, after fasting for 24 hours, 20 mg/kg of streptozotocin (Sigma) dissolved in 0.01 M citric acid buffer (pH 4.3) was injected via the tail vein. A week later, rats with blood glucose concentrations over 11.1 mmol/L were considered hyperglycemic and divided into two groups of 7 and one group of 5 as the control.
The rats in the two groups of 7 were treated with berberine orally twice a day for 14 days, at 8:00 am and 5:00 pm, with a total dose of berberine at 75 mg/kg/day or 150 mg/kg/day, respectively. Blood samples were taken by tail snip after 4 hours fasting on indicating days of treatment, and blood glucose was measured. On the last day of the experiment, all of the rats fasted overnight and were then sacrificed.
as §1

Another series is described as follows: in vivo. The following applies: beagle, dog, iv, 100 mg/kg. The protocol:
Four beagles were injected intravenously with 100 mg/kg of berberine. Using a two compartment model, the pharmacokinetic parameter estimates were as follows: […]

The next series relates to rats. The following applies: rat, in vivo.
A further series deals with HepG2 cells. The series is described as follows: Glucose consumption of HepG2 cells with insulin, with or without InsR siRNA. The series is classed as cell-based, human. The following applies: […] berberine, 0.5 nM insulin, 12 hr. As to the method: Human InsR siRNA duplex, non-specific control siRNA, siRNA transfection reagent and siRNA transfection medium were obtained from Santa Cruz Biotechnology, Inc. (Santa Cruz, Calif.) and the vendor's siRNA transfection procedure was followed. Briefly, HepG2 cells were seeded onto six-well plates in antibiotic-free RPMI-1640 medium containing 10% fetal bovine serum (FBS). After 60-80% confluence of monolayer, FBS containing medium was discarded and cells were washed with siRNA transfection medium (2 mVwell). 0.8 ml of siRNA transfection medium containing 6 μl of human InsR siRNA duplex (or control siRNA) and 6 ld^1 of siRNA transfection reagent were well mixed at room temperature for 30 min, followed by loading onto washed HepG2 cells. After an 8 hr incubation, the transfection mixture was removed and fresh RPMI-1640 medium supplied with 10% FBS was added. The cells were then incubated for 24 hr. Then, the culture medium was replaced with fresh medium and incubated for an additional 24 hr. At the end of incubation, FBS containing medium was removed and replaced with serum-free fresh RPMI-1640 medium. […] After 12 hr incubation, the amount of glucose in the sample medium was determined. The glucose consumption was calculated according to the following formula: glucose level of the fresh RPMI-1640 minus glucose level of the used RPMIN-1640. […]

A further series has as its system InsR. The experiment in a line: InsR expression on peripheral blood lymphocytes of patients (flow cytometry). The format is in vivo, human. The following applies: patients after two months of berberine. The source says: Peripheral blood lymphocytes (PBL) were collected for InsR expression analysis. InsR protein expressed on the surface of peripheral blood lymphocytes were stained with monoclonal antibody against human insulin receptor (Pharmagen, San Diego, Calif.) and analyzed in a flow cytometer (BD and Company, San Jose, Calif.)
(In general: A flow cytometer gives signals particle by particle.)

Series [3] concerns LDLR mRNA. The series is described as follows: Screen of 700 compounds from Chinese herbs for LDLR mRNA in HepG2 cells (semi-quantitative RT-PCR). The series is classed as cell-based, human. The following applies: HepG2, 24 hours. As to the method:
In exemplary experiments, cells from a human hepatoma-derived cell line, HepG2, were treated for 24 hours with 700 compounds isolated from Chinese herbs. RNA was then isolated from the cells and analysis of LDLR mRNA was determined using semi-quantitative RT-PCR assays. […] Treating HepG2 cells cultured in medium containing 0.5% lipoprotein-depleted fetal bovine serum or serum supplemented with sterols and berberine caused time dependent increases in the expression of LDLR mRNA.

[4] abbreviates: 150 mg/kg/day, 14 day treatment.

One may read the LD50 as the dose at which mortality reaches 50%. A higher LD50 goes with a less toxic substance. As usually defined, the AUC is the area under the concentration-time curve, a measure of exposure. Read a high AUC as more exposure. The term clearance denotes a measure of how efficiently the substance is removed, as volume per time. A high value points to efficient removal. Broadly, the half-life is how long it takes for the measured level to halve.

As to `COc1ccc2cc3[n+](cc2c1OC)CCc1cc2c(cc1-3)OCO2` [berberine], the “activity of PKC in the livers” value in the series on PKC is “increased activity of PKC”. The compound also came in with an LD50 in series [1] (intraperitoneal, peritoneal injection) of 138 to 146 mg/kg. Moreover, in [1] (intravenous injection), the LD50 is 46.2 to 63.3 mg/kg. In series [1] (oral dose), this compound had an LD50 greater than 15000 mg/kg. In [1] (sc, subcutaneous injection), this compound displayed an LD50 of 7970 to 10700 mg/kg. Further, the “increase of LDLR mRNA expression” value in the series with LDLR mRNA [2] (5 μg/ml) was found to be 2.3 fold. Further, in the series on LDLR mRNA [2] (berberine 0.5-5 μg/ml, berberine sulfate 2.5, 7.5, 15 μg/ml), the “LDLR mRNA expression, dose dependence” value was “increased LDLR mRNA expression in a dose dependent fashion”. In addition, the “reduction of fasting blood glucose vs untreated rats on same HFHC diet” value with hyperglycemic rats (75 mg/kg/day orally) was determined as 22%. For the same compound, in the series on hyperglycemic rats (150 mg/kg/day orally), the “reduction of fasting blood glucose vs untreated rats on same HFHC diet” value is reported as 33%. Moreover, in the series with hyperglycemic rats (setting [4]), the “reduction of LDL-c vs control animals on same HFHC diet” value was determined as 33%, the “reduction of cholesterol vs control animals on same HFHC diet” value was 25% and the “reduction of triglyceride vs control animals on same HFHC diet” value was found to be 24%. Moreover, in the series with hyperglycemic rats (insulin resistant HFHC rats), the “fasting serum insulin levels” value is “significantly reduced the serum insulin levels”. Moreover, in “in vivo”, the AUC was found to be 1980 ± 1140 ng·h/mL, the clearance was 1010 mL/min and the half-life is 12.6 ± 8.83 h. The birth defects result in the series with rats is given as “No birth defects were evident”. Besides, in the series with HepG2 cells, the “glucose consumption of human hepatic cells treated with insulin” value is “significantly increased”. In the series on InsR, the “% of PBL expressing InsR on the surface” value was “significantly increased”. For the same compound, the “LDLR expression among 700 compounds tested” value in the series with LDLR mRNA [3] is “greatest increase in LDLR expression”.
